What was measured:
Format in all cases: functional
Mus musculus [1] = experiment: In vivo antileukemic activity against P-388 lymphocytic leukemia in BDF1 male mice at 60 mg/kg/day intraperitoneal dose expressed as T/C
Mus musculus [2] = experiment: Antileukemic activity of compound against the P-388 lymphocytic leukemic BDF1 male mice at 8(mg/kg)/day, administered intraperitoneally; 14.0/9.66 (Treated/control)
Mus musculus [3] = experiment: In vivo antileukemic activity against P-388 lymphocytic leukemia in BDF1 male mice at 15(mg/kg)/day intraperitoneal dose expressed as T/C
Mus musculus [4] = experiment: In vivo antileukemic activity against P-388 lymphocytic leukemia in BDF1 male mice at 8(mg/kg)/day intraperitoneal dose expressed as T/C
Mus musculus [5] = experiment: Antileukemic activity of compound against the P-388 lymphocytic leukemic BDF1 male mice at 60 mg/kg/day, administered intraperitoneally; 12.7/9.66 (Treated/control); conditions: route intraperitoneal
Mus musculus [6] = experiment: Antileukemic activity of compound against the P-388 lymphocytic leukemic BDF1 male mice at 15(mg/kg)/day, administered intraperitoneally; 18.7/9.66 (Treated/control)
Mus musculus [7] = experiment: In vivo antileukemic activity against P-388 lymphocytic leukemia in BDF1 male mice at 30(mg/kg)/day intraperitoneal dose expressed as T/C
Mus musculus [8] = experiment: Antileukemic activity of compound against the P-388 lymphocytic leukemic BDF1 male mice at 30(mg/kg)/day, administered intraperitoneally; 15.4/9.66 (Treated/control)
Mus musculus [9] = experiment: Antileukemic activity of compound against the P-388 lymphocytic leukemic BDF1 male mice at 4(mg/kg)/day, administered intraperitoneally; 16.5/9.66 (Treated/control)
Mus musculus [10] = experiment: Antileukemic activity of compound against the P-388 lymphocytic leukemic BDF1 male mice at 8(mg/kg)/day, administered intraperitoneally; 18.8/9.66 (Treated/control)
Mus musculus [11] = experiment: Antileukemic activity of compound against the P-388 lymphocytic leukemic BDF1 male mice at 30(mg/kg)/day, administered intraperitoneally; 7/9.66 (Treated/control)
Mus musculus [12] = experiment: Antileukemic activity of compound against the P-388 lymphocytic leukemic BDF1 male mice at 60 mg/kg/day, administered intraperitoneally; 4.7/9.66 (Treated/control); conditions: route intraperitoneal
Mus musculus [13] = experiment: In vivo antileukemic activity against P-388 lymphocytic leukemia in BDF1 male mice at 2(mg/kg)/day intraperitoneal dose expressed as T/C
Mus musculus [14] = experiment: Antileukemic activity of compound against the P-388 lymphocytic leukemic BDF1 male mice at 2(mg/kg)/day, administered intraperitoneally; 11.5/9.66 (Treated/control)
Mus musculus [15] = experiment: Antileukemic activity of compound against the P-388 lymphocytic leukemic BDF1 male mice at 15(mg/kg)/day, administered intraperitoneally; 9/9.66 (Treated/control)
Mus musculus [16] = experiment: In vivo antileukemic activity against P-388 lymphocytic leukemia in BDF1 male mice at 4(mg/kg)/day intraperitoneal dose expressed as T/C
Mus musculus [17] = experiment: Antileukemic activity of compound against the P-388 lymphocytic leukemic BDF1 male mice at 4(mg/kg)/day, administered intraperitoneally; 11.0/9.66 (Treated/control)
Mus musculus [18] = experiment: Antileukemic activity of compound against the P-388 lymphocytic leukemic BDF1 male mice at 2(mg/kg)/day, administered intraperitoneally; 11.6/9.66 (Treated/control)
Mus musculus [19] = experiment: Antileukemic activity of compound against the P-388 lymphocytic leukemic BDF1 male mice at 15(mg/kg)/day, administered intraperitoneally; 13.6/9.66 (Treated/control)
Mus musculus [20] = experiment: Antileukemic activity of compound against the P-388 lymphocytic leukemic BDF1 male mice at 60 mg/kg/day, administered intraperitoneally; 12.6/9.66 (Treated/control); conditions: route intraperitoneal
Mus musculus [21] = experiment: Antileukemic activity of compound against the P-388 lymphocytic leukemic BDF1 male mice at 30(mg/kg)/day, administered intraperitoneally; 15.2/9.66 (Treated/control)
Mus musculus [22] = experiment: Antileukemic activity of compound against the P-388 lymphocytic leukemic BDF1 male mice at 15(mg/kg)/day, administered intraperitoneally; 11.1/9.66 (Treated/control)
Mus musculus [23] = experiment: In vivo antileukemic activity against P-388 lymphocytic leukemia in BDF1 male mice at 5(mg/kg)/day intraperitoneal dose expressed as T/C
Mus musculus [24] = experiment: Antileukemic activity of compound against the P-388 lymphocytic leukemic BDF1 male mice at 5(mg/kg)/day, administered intraperitoneally; 11.8/9.66 (Treated/control)
Mus musculus [25] = experiment: Antileukemic activity of compound against the P-388 lymphocytic leukemic BDF1 male mice at 15(mg/kg)/day, administered intraperitoneally; 13.2/9.66 (Treated/control)
Mus musculus [26] = experiment: Antileukemic activity of compound against the P-388 lymphocytic leukemic BDF1 male mice at 8(mg/kg)/day, administered intraperitoneally; 11.8/9.66 (Treated/control)
Mus musculus [27] = experiment: Antileukemic activity of compound against the P-388 lymphocytic leukemic BDF1 male mice at 15(mg/kg)/day, administered intraperitoneally (Treated/control)
Mus musculus [28] = experiment: In vivo antileukemic activity against P-388 lymphocytic leukemia in BDF1 male mice at 0.6(mg/kg)/day intraperitoneal dose expressed as T/C
Mus musculus [29] = experiment: Antileukemic activity of compound against the P-388 lymphocytic leukemic BDF1 male mice at 0.6(mg/kg)/day, administered intraperitoneally; 11.0/9.66 (Treated/control)
Mus musculus [30] = experiment: Antileukemic activity of compound against the P-388 lymphocytic leukemic BDF1 male mice at 25(mg/kg)/day, administered intraperitoneally; 10.6/9.66 (Treated/control)

**Q.** `C[C@@H]1C[C@H]2OC(=O)[C@@H](C)[C@H]2[C@H](OC(=O)CCC(=O)O[C@H]2[C@@H]3[C@H](C)C(=O)O[C@@H]3C[C@@H](C)[C@@H]3C=CC(=O)[C@]32C)[C@]2(C)C(=O)C=C[C@@H]12` was tested. Which T/C (Mus musculus [1]) did it give?
**A.** 131%

**Q.** What about the “Average survival (days)” value (Mus musculus [2]) of the same compound?
**A.** 14

**Q.** What about the T/C (Mus musculus [3]) of the same compound?
**A.** 194%

**Q.** And the T/C (Mus musculus [4])?
**A.** 145%

**Q.** What about the “Average survival (days)” value (Mus musculus [5]) of the same compound?
**A.** 12.7

**Q.** What about the “Average survival (days)” value (Mus musculus [6]) of the same compound?
**A.** 18.7

**Q.** And the T/C (Mus musculus [7])?
**A.** 159%

**Q.** And the “Average survival (days)” value (Mus musculus [8])?
**A.** 15.4

**Q.** Which T/C (Mus musculus [1]) does the source give for `C=C1C(=O)O[C@@H]2C[C@@H](C)[C@@H]3C=CC(=O)[C@@]3(C)[C@@H](OC(=O)CCCC(=O)O[C@H]3[C@@H]4C(=C)C(=O)O[C@@H]4C[C@@H](C)[C@@H]4C=CC(=O)[C@]43C)[C@H]12` here?
**A.** 48%

**Q.** And the “Average survival (days)” value (Mus musculus [9])?
**A.** 16.5

**Q.** What about the “Average survival (days)” value (Mus musculus [10]) of the same compound?
**A.** 18.8

**Q.** And the “Average survival (days)” value (Mus musculus [11])?
**A.** 7

**Q.** And the “Average survival (days)” value (Mus musculus [12])?
**A.** 4.7

**Q.** And the T/C (Mus musculus [3])?
**A.** 93%

**Q.** What about the T/C (Mus musculus [4]) of the same compound?
**A.** 195%

**Q.** And the T/C (Mus musculus [13])?
**A.** 116%

**Q.** And the T/C (Mus musculus [7])?
**A.** 72%

**Q.** What about the “Average survival (days)” value (Mus musculus [14]) of the same compound?
**A.** 11.2

**Q.** And the “Average survival (days)” value (Mus musculus [15])?
**A.** 9

**Q.** And the T/C (Mus musculus [16])?
**A.** 171%

**Q.** For `C=C1C(=O)O[C@@H]2C[C@@H](C)[C@@H]3CCC(=O)[C@@]3(C)[C@@H](OC(=O)CCC(=O)O[C@H]3[C@@H]4C(=C)C(=O)O[C@@H]4C[C@@H](C)[C@@H]4CCC(=O)[C@]43C)[C@H]12`, which T/C (Mus musculus [1]) is on record?
**A.** 130%

**Q.** And the “Average survival (days)” value (Mus musculus [17])?
**A.** 11

**Q.** What about the “Average survival (days)” value (Mus musculus [18]) of the same compound?
**A.** 11.6

**Q.** And the “Average survival (days)” value (Mus musculus [19])?
**A.** 13.6

**Q.** What about the T/C (Mus musculus [3]) of the same compound?
**A.** 141%

**Q.** And the “Average survival (days)” value (Mus musculus [20])?
**A.** 12.6

**Q.** And the T/C (Mus musculus [13])?
**A.** 120%

**Q.** What about the T/C (Mus musculus [7]) of the same compound?
**A.** 157%

**Q.** What about the “Average survival (days)” value (Mus musculus [21]) of the same compound?
**A.** 15.2

**Q.** What about the T/C (Mus musculus [16]) of the same compound?
**A.** 114%

**Q.** How did the “Average survival (days)” value (Mus musculus [22]) turn out when `CC1C(=O)O[C@@H]2C[C@@H](C)[C@@H]3CCC(=O)[C@@]3(C)[C@@H](OC(=O)CC(=O)O[C@H]3[C@@H]4C(C)C(=O)O[C@@H]4C[C@@H](C)[C@@H]4CCC(=O)[C@]43C)[C@H]12` (some centres not stated) was run?
**A.** 11.1

**Q.** And the T/C (Mus musculus [23])?
**A.** 122%

**Q.** What about the T/C (Mus musculus [3]) of the same compound?
**A.** 115%

**Q.** What about the “Average survival (days)” value (Mus musculus [24]) of the same compound?
**A.** 11.8

**Q.** How did the “Average survival (days)” value (Mus musculus [25]) turn out when `C=C1C(=O)O[C@@H]2C[C@@H](C)[C@@H]3CCC(=O)[C@@]3(C)[C@@H](OC(=O)CC(=O)O[C@H]3[C@@H]4C(=C)C(=O)O[C@@H]4C[C@@H](C)[C@@H]4CCC(=O)[C@]43C)[C@H]12` was run?
**A.** 13.2

**Q.** And the “Average survival (days)” value (Mus musculus [26])?
**A.** 11.8

**Q.** What about the T/C (Mus musculus [4]) of the same compound?
**A.** 122%

**Q.** What about the T/C (Mus musculus [27]) of the same compound?
**A.** 137%

**Q.** What does the source list for `O=C(O)CC(=O)O` [MALONIC ACID]?
**A.** T/C (Mus musculus [28]): 114%; Average survival (days) (Mus musculus [29]): 11

**Q.** For `C=C1C(=O)O[C@@H]2C[C@@H](C)[C@@H]3CCC(=O)[C@@]3(C)[C@@H](O)[C@H]12`, which “Average survival (days)” value (Mus musculus [30]) is on record?
**A.** 10.6

**Q.** And the T/C (Mus musculus [1])?
**A.** 110%
